Among the data in patent US20240368092A1, “2,4-Dihydro-3H-1,2,4-Triazol-3-One P2X7 Antagonists” (Breye Therapeutics ApS, priority 2021, published 2024) are IC50 values, retold here.

Holding throughout (assay type): cell-based
Assay [1] addresses T1, human P2X7 channel (Homo sapiens, UniProt Q99572).
T1 construct: expressed in transfected cells; host or cells: HEK-293
T1 sequence (Q99572 1-595): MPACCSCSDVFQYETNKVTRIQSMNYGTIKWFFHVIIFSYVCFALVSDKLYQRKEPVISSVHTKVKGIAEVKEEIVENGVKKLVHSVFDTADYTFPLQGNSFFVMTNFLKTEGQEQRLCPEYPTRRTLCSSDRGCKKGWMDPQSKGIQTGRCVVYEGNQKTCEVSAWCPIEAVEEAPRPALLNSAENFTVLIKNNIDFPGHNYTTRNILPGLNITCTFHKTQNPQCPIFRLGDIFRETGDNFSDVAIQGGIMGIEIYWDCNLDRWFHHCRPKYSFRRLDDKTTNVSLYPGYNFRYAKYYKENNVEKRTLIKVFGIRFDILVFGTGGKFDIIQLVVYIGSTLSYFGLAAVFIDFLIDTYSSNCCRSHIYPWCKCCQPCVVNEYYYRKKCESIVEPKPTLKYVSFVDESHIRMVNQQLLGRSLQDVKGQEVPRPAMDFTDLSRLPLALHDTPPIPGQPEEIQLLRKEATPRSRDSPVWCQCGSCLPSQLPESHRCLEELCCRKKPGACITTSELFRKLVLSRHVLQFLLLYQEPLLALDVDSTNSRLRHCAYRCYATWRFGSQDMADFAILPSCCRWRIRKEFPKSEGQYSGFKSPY
Briefly: human P2X7 channel assay by automated patch-clamp (QPatch 16X). The conditions noted are these: HEK-293 cells expressing P2X7; current evoked by 100 microM BzATP; whole-cell, held at -80 mV; read-out: human Q-Patch (activity range). On the procedure:
In order to directly monitor the block of P2X7 channel, an electrophysiological assay was developed and implemented on the QPatchl6X automated electrophysiology instrument.
HEK-293 cells expressing the P2X7 channels were cultured in modified EMEM.
72 hours before experiment, 5 million cells were seeded onto T225 flasks. Just before the experiment cells were washed twice, detached from the flask with trypsin-EDTA, re-suspended in the suspension solution and placed on the QPatch 16x.
The compounds (20 mM in a 100% DMSO) stored at −20° C. were prepared the day of the experiment (a first dilution 1:20 in 100% DMSO to prepare a 1 mM stock solution, then a 1 microM solution in external solution+a serial dilution 1:10).
The standard whole-cell voltage clamp experiments were performed at room temperature. From these experiments the multihole technology was used and the data were sampled at 2 KHz.
The intracellular solution contained (mM) 135 CsF, 10 NaCl, 1 EGTA, 10 HEPES, (pH 7.2 with CsOH) whereas the extracellular contained (mM) 145 NaCl, 4 KCl, 0.5 MgCl2, 1 CaCl2, 10 HEPES, 10 Glc (pH 7.4 with NaOH).
After establishment of the seal and the passage in the whole cell configuration, the cells were held at −80 mV. The P2XR7 current was evoked by applying 100 microM of BzATP alone (4 times) and then in the presence increasing concentrations of the compound under investigation (1, 10, 100 and 1000 nM).
The pre-incubation periods 5 to 8 contain increasing concentrations of the compound of interest (1, 10, 100 and 1000 nM), as illustrated in FIGURE (application protocol).
The maximal inward current evoked by BzATP in absence or presence of increasing concentrations of the compounds under investigation was measured and normalized. The potential […] effect was measured as % of control and as IC50 determined fitting the dose-response curves data with the following equation:
Here are reported the potency ranges as A, B, C and D, where A is <10 nM; B is 10 nM-100 nM, C is 0.1-1 μM, D is 1-10 μM.
A general note: The patch-clamp technique gives a direct electrical read-out from membranes.

The target in assay [2] is T2, ratP2X7 (Rattus norvegicus, UniProt Q64663).
T2 construct: expressed in transfected cells; host or cells: HEK-293
T2 sequence (Q64663 1-595): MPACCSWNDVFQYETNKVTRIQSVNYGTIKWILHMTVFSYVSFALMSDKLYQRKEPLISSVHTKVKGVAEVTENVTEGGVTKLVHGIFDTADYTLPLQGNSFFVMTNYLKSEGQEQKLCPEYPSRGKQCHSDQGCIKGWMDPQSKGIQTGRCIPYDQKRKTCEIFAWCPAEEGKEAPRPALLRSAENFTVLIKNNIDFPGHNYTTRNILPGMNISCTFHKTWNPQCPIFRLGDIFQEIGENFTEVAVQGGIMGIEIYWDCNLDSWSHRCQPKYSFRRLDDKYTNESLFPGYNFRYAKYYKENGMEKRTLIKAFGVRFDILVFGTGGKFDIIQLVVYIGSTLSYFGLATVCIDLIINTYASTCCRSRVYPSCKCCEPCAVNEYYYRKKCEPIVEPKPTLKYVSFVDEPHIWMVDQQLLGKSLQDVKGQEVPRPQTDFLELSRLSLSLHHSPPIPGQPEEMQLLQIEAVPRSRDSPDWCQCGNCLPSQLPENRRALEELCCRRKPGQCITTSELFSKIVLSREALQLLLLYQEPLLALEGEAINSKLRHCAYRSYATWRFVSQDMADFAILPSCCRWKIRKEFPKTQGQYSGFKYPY
As to the kind of experiment: P2X7 channel calcium-influx assay (Fluo-8, FLIPR TETRA), rat P2X7. The conditions noted are these: HEK-293 cells stably transfected with P2X7; Bz-ATP at EC80; low divalent cation buffer; read-out: ratP2X7 (activity range). As to the method: (§1) Extracellular binding of Bz-ATP to P2X7 receptor opens the channel and allows Ca^2+ influx into the cells. This Ca^2+ entry was measured in HEK-293 cells stably transfected with P2X7 receptor using Screen Quest™ Fluo-8 No Wash Calcium Assay Kit (AAt Bioquest®, cat. 36316). Once inside the cell, the lipophilic blocking groups of Fluo-8 are cleaved by non-specific cell esterases, resulting in a negatively-charged fluorescent dye that stays inside cells. Its fluorescence increases upon binding to calcium. When HEK-293/P2X7 cells are stimulated with Bz-ATP, Ca^2+ enters the cells and the fluorescence of Fluo-8 NW increases. The dye has an absorption spectrum compatible with excitation at 488 nm by argon laser sources and its emission wavelength is in the range of 515-575 nm.
(§2) HEK-293 cells stably transfected with P2X7 receptor were seeded overnight in growth medium at 10,000 to 20,000 cells/well in 384-well plate. 24 hours later, the medium was removed, and the cells were pre-loaded at RT for 1 hour with 20 μL/w of Fluo-8 NW. Then 10 μL/w of test compounds and reference antagonist A438079 at 3×-concentration were injected with the FLIPRTETRA and the kinetic response over a period of five minutes was monitored. A second injection of 15 μL/w of 3× reference activator (Bz-ATP at EC80) was performed with the FLIPR TETRA and the signal of the emitted fluorescence was recorded for additional three minutes. All the experiment was carried out in a Low Divalent Cation Assay Buffer (0.3 mM Ca^2+ and 0 mM Mg^2+). The effect of the test compounds was measured as percent inhibition vs the reference antagonist and IC50 values were calculated accordingly. Here are reported the potency ranges as A, B, C and D, where A is <200 nM; B is 200 nM-1 μM, C is 1-10 μM, D is 10-30 μM.

The target in assay [3] is T3, humanP2X7 (Homo sapiens, UniProt Q99572).
T3 construct: expressed in transfected cells; host or cells: HEK-293
T3 sequence (Q99572 1-595): T1 sequence (Q99572 1-595)
Briefly: P2X7 channel calcium-influx assay (Fluo-8, FLIPR TETRA), human P2X7. The following applies: HEK-293 cells stably transfected with P2X7; Bz-ATP at EC80; low divalent cation buffer; read-out: humanP2X7 (activity range). As to the method: as §1, §2

Assay [4] deals with T4, mouseP2X7 (Mus musculus, UniProt Q9Z1M0).
T4 construct: expressed in transfected cells; host or cells: HEK-293
T4 sequence (Q9Z1M0 1-595): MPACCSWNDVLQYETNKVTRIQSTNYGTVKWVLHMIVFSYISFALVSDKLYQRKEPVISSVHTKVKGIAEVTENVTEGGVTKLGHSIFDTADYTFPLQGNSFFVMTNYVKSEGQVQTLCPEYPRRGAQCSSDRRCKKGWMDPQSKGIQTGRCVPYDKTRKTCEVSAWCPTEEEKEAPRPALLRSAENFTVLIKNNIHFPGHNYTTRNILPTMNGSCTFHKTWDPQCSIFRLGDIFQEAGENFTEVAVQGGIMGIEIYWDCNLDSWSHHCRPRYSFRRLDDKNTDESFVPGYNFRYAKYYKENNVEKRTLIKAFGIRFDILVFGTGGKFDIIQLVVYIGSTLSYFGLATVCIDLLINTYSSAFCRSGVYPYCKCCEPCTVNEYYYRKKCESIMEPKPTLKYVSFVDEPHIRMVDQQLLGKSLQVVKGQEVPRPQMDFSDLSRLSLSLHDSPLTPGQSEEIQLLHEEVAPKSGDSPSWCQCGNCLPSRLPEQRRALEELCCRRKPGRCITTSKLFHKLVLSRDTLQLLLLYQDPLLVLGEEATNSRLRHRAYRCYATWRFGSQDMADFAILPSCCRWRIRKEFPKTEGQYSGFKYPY
Briefly: P2X7 channel calcium-influx assay (Fluo-8, FLIPR TETRA), mouse P2X7. The conditions noted are these: HEK-293 cells stably transfected with P2X7; Bz-ATP at EC80; low divalent cation buffer; read-out: mouseP2X7 (activity range). On the procedure: as §1, §2

Take `Cn1nc(Cc2ccccc2C(F)(F)F)n(CC2CCC(F)(F)C2)c1=O` (centres unmarked) [Example 19, 4-((3,3-difluorocyclopentyl)methyl)-2-methyl-5-(2-(trifluoromethyl)benzyl)-2,4-dihydro-3H-1,2,4-triazol-3-one]: the IC50 in assay [1] fell in the range of 100 to 1000 nM; in assay [2], 200 to 1000 nM; in assay [3], 1000 to 10000 nM; in assay [4], 10000 to 30000 nM.
For `Cn1nc(Cc2c(F)cccc2Cl)n(CC2CCCO2)c1=O` (centres unmarked) [Example 20, 5-(2-chloro-6-fluorobenzyl)-2-methyl-4-((tetrahydrofuran-2-yl)methyl)-2,4-dihydro-3H-1,2,4-triazol-3-one], in that order: 1000 to 10000 nM, 10000 to 30000 nM, 10000 to 30000 nM and 10000 to 30000 nM.
Regarding `CN1CCCCC1Cn1c(Cc2c(F)cccc2Cl)nn(C)c1=O` (centres unmarked) [Example 21, 5-(2-chloro-6-fluorobenzyl)-2-methyl-4-((1-methylpiperidin-2-yl)methyl)-2,4-dihydro-3H-1,2,4-triazol-3-one], the IC50 in assay [1] lay within 1000 to 10000 nM; in assay [2], 1000 to 10000 nM; in assay [3] it was 1000 to 10000 nM; in assay [4] it was 10000 to 30000 nM.
Consider `Cn1nc(Cc2c(F)cccc2Cl)n(CCN2CCOCC2)c1=O` [Example 22, 5-(2-chloro-6-fluorobenzyl)-2-methyl-4-(2-morpholinoethyl)-2,4-dihydro-3H-1,2,4-triazol-3-one], for which the IC50 in assay [1] lay in the range of 1000 to 10000 nM; in assay [2], 10000 to 30000 nM; in assay [3] it was 10000 to 30000 nM; in assay [4], 10000 to 30000 nM.
As to `Cn1nc(Cc2ccccc2C(F)(F)F)n(CC2CCCCC2(C)C)c1=O` (centres unmarked) [Example 23, 4-((2,2-dimethylcyclohexyl)methyl)-2-methyl-5-(2-(trifluoromethyl)benzyl)-2,4-dihydro-3H-1,2,4-triazol-3-one], the IC50 in assay [1] was 1000 to 10000 nM; in assay [2], below 200 nM; in assay [3], 200 to 1000 nM; in assay [4], 200 to 1000 nM.
For the molecule `Cn1nc(CC2CCCCC2)n(Cc2c(F)cccc2Cl)c1=O` [Example 24, 4-(2-chloro-6-fluorobenzyl)-5-(cyclohexylmethyl)-2-methyl-2,4-dihydro-3H-1,2,4-triazol-3-one], the IC50 in assay [1] was 100 to 1000 nM; in assay [2] it was below 200 nM; in assay [3], 200 to 1000 nM; in assay [4], 1000 to 10000 nM.
In the case of `Cn1nc(CC2CCCCC2)n(Cc2ccccc2C(F)(F)F)c1=O` [Example 25, 5-(cyclohexylmethyl)-2-methyl-4-(2-(trifluoromethyl)benzyl)-2,4-dihydro-3H-1,2,4-triazol-3-one], the IC50 in assay [1] was 100 to 1000 nM; in assay [2], 1000 to 10000 nM; in assay [3], 1000 to 10000 nM; in assay [4], 10000 to 30000 nM.
As for `Cn1nc(Cc2ccccc2F)n(CC2CCC(F)(F)CC2)c1=O` [Example 26, 4-((4,4-difluorocyclohexyl)methyl)-5-(2-fluorobenzyl)-2-methyl-2,4-dihydro-3H-1,2,4-triazol-3-one], the IC50 in assay [1] was 100 to 1000 nM; in assay [2], below 200 nM; in assay [3], 200 to 1000 nM; in assay [4], 1000 to 10000 nM.
Consider `Cn1nc(Cc2ccccc2F)n(CC2CCCCC2)c1=O` [Example 27, 4-(cyclohexylmethyl)-5-(2-fluorobenzyl)-2-methyl-2,4-dihydro-3H-1,2,4-triazol-3-one], for which the IC50 is 1000 to 10000 nM in assay [1], below 200 nM in assay [2], 1000 to 10000 nM in assay [3] and 1000 to 10000 nM in assay [4].
`Cn1nc(Cc2ccccc2C(F)(F)F)n(CC2CCCCCC2)c1=O` [Example 28, 4-(cycloheptylmethyl)-2-methyl-5-(2-(trifluoromethyl)benzyl)-2,4-dihydro-3H-1,2,4-triazol-3-one]: the IC50 is 100 to 1000 nM in assay [1], below 200 nM in assay [2], 200 to 1000 nM in assay [3] and 1000 to 10000 nM in assay [4].
The like results for `Cn1nc(Cc2ccc(F)cc2)n(Cc2cc(-c3ncc(F)cn3)ccc2Cl)c1=O` [Example 29, 4-(2-chloro-5-(5-fluoropyrimidin-2-yl)benzyl)-5-(4-fluorobenzyl)-2-methyl-2,4-dihydro-3H-1,2,4-triazol-3-one] were, in that order, 1000 to 10000 nM, 10000 to 30000 nM, 10000 to 30000 nM and 10000 to 30000 nM.
